# According to patent US20230017045A1, “PYRIDINE AND PYRIMIDINE CARBOXYLATE HERBICIDES AND METHODS OF USE THEREOF” (Dow AgroSciences LLC, priority 2017, published 2023):
# System: test plant species
# Test: Post-emergent herbicidal activity test (greenhouse, foliar spray, visual growth reduction)
# Format: in vivo
# Conditions: post-emergence, 336 h, ALOMY: blackgrass (Alopecurus myosuroides), 140 g ai/ha, 14 days after application, read-out: Visual Growth Reduction (%) 14 Days After Application, ALOMY
# Summary of the method: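 Scoring used a 0 to 100 percent visual scale of growth reduction against solvent-treated controls, read 14 d after spraying. Applications went onto plants at first or second true leaf stage, 187 L/ha, with crop oil concentrate and X-77 surfactant in the carrier. Post-treatment watering was by subirrigation to avoid wash-off.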
row,SMILES,pest or weed control at 140 g/ha [%]
1,"COC(=O)c1nc(-c2cc(O)c(Cl)cc2F)ccc1Cl [F128, Methyl 3-chloro-6-(4-chloro-2-fluoro-5-hydroxyphenyl) picolinate]",0 to 29
2,"COC(=O)c1nc(-c2ccc(C(F)(F)F)cc2Cl)cc(Br)c1Cl [F41, methyl 4-bromo-3-chloro-6-(2-chloro-4-(trifluoromethyl)phenyl)picolinate]",0 to 29

# Same assay, conditions: post-emergence, 336 h, AMARE: redroot pigweed (Amaranthus retroflexus), 140 g ai/ha, 14 days after application, read-out: Visual Growth Reduction (%) 14 Days After Application, AMARE
row,SMILES,pest or weed control at 140 g/ha [%]
1,"COC(=O)c1nc(-c2cc(O)c(Cl)cc2F)ccc1Cl [F128, Methyl 3-chloro-6-(4-chloro-2-fluoro-5-hydroxyphenyl) picolinate]",0 to 29
2,"COC(=O)c1nc(-c2ccc(C(F)(F)F)cc2Cl)cc(Br)c1Cl [F41, methyl 4-bromo-3-chloro-6-(2-chloro-4-(trifluoromethyl)phenyl)picolinate]",0 to 29

# Same assay, conditions: post-emergence, 336 h, AVEFA: wild oat (Avena fatua), 140 g ai/ha, 14 days after application, read-out: Visual Growth Reduction (%) 14 Days After Application, AVEFA
row,SMILES,pest or weed control at 140 g/ha [%]
1,"COC(=O)c1nc(-c2cc(O)c(Cl)cc2F)ccc1Cl [F128, Methyl 3-chloro-6-(4-chloro-2-fluoro-5-hydroxyphenyl) picolinate]",0 to 29
2,"COC(=O)c1nc(-c2ccc(C(F)(F)F)cc2Cl)cc(Br)c1Cl [F41, methyl 4-bromo-3-chloro-6-(2-chloro-4-(trifluoromethyl)phenyl)picolinate]",0 to 29

# Same assay, conditions: post-emergence, 336 h, CHEAL: lambsquarters (Chenopodium album), 140 g ai/ha, 14 days after application, read-out: Visual Growth Reduction (%) 14 Days After Application, CHEAL
row,SMILES,pest or weed control at 140 g/ha [%]
1,"COC(=O)c1nc(-c2cc(O)c(Cl)cc2F)ccc1Cl [F128, Methyl 3-chloro-6-(4-chloro-2-fluoro-5-hydroxyphenyl) picolinate]",0 to 29
2,"COC(=O)c1nc(-c2ccc(C(F)(F)F)cc2Cl)cc(Br)c1Cl [F41, methyl 4-bromo-3-chloro-6-(2-chloro-4-(trifluoromethyl)phenyl)picolinate]",0 to 29

# Same assay, conditions: post-emergence, 336 h, CIRAR: canada thistle (Cirsium arvense), 140 g ai/ha, 14 days after application, read-out: Visual Growth Reduction (%) 14 Days After Application, CIRAR
row,SMILES,pest or weed control at 140 g/ha [%]
1,"COC(=O)c1nc(-c2cc(O)c(Cl)cc2F)ccc1Cl [F128, Methyl 3-chloro-6-(4-chloro-2-fluoro-5-hydroxyphenyl) picolinate]",0 to 29
2,"COC(=O)c1nc(-c2ccc(C(F)(F)F)cc2Cl)cc(Br)c1Cl [F41, methyl 4-bromo-3-chloro-6-(2-chloro-4-(trifluoromethyl)phenyl)picolinate]",0 to 29

# Same assay, conditions: post-emergence, 336 h, CYPES: yellow nutsedge (Cyperus esculentus), 140 g ai/ha, 14 days after application, read-out: Visual Growth Reduction (%) 14 Days After Application, CYPES
row,SMILES,pest or weed control at 140 g/ha [%]
1,"COC(=O)c1nc(-c2cc(O)c(Cl)cc2F)ccc1Cl [F128, Methyl 3-chloro-6-(4-chloro-2-fluoro-5-hydroxyphenyl) picolinate]",0 to 29
2,"COC(=O)c1nc(-c2ccc(C(F)(F)F)cc2Cl)cc(Br)c1Cl [F41, methyl 4-bromo-3-chloro-6-(2-chloro-4-(trifluoromethyl)phenyl)picolinate]",0 to 29

# Same assay, conditions: post-emergence, 336 h, DIGSA: crabgrass (Digitaria sanguinalis), 140 g ai/ha, 14 days after application, read-out: Visual Growth Reduction (%) 14 Days After Application, DIGSA
row,SMILES,pest or weed control at 140 g/ha [%]
1,"COC(=O)c1nc(-c2cc(O)c(Cl)cc2F)ccc1Cl [F128, Methyl 3-chloro-6-(4-chloro-2-fluoro-5-hydroxyphenyl) picolinate]",0 to 29
2,"COC(=O)c1nc(-c2ccc(C(F)(F)F)cc2Cl)cc(Br)c1Cl [F41, methyl 4-bromo-3-chloro-6-(2-chloro-4-(trifluoromethyl)phenyl)picolinate]",0 to 29

# Same assay, conditions: post-emergence, 336 h, ECHCG: barnyardgrass (Echinochloa crus-galli), 140 g ai/ha, 14 days after application, read-out: Visual Growth Reduction (%) 14 Days After Application, ECHCG
row,SMILES,pest or weed control at 140 g/ha [%]
1,"COC(=O)c1nc(-c2cc(O)c(Cl)cc2F)ccc1Cl [F128, Methyl 3-chloro-6-(4-chloro-2-fluoro-5-hydroxyphenyl) picolinate]",0 to 29
2,"COC(=O)c1nc(-c2ccc(C(F)(F)F)cc2Cl)cc(Br)c1Cl [F41, methyl 4-bromo-3-chloro-6-(2-chloro-4-(trifluoromethyl)phenyl)picolinate]",0 to 29

# Same assay, conditions: post-emergence, 336 h, IPOHE: ivy-leaf morning glory (Ipomoea hederacea), 140 g ai/ha, 14 days after application, read-out: Visual Growth Reduction (%) 14 Days After Application, IPOHE
row,SMILES,pest or weed control at 140 g/ha [%]
1,"COC(=O)c1nc(-c2cc(O)c(Cl)cc2F)ccc1Cl [F128, Methyl 3-chloro-6-(4-chloro-2-fluoro-5-hydroxyphenyl) picolinate]",0 to 29
2,"COC(=O)c1nc(-c2ccc(C(F)(F)F)cc2Cl)cc(Br)c1Cl [F41, methyl 4-bromo-3-chloro-6-(2-chloro-4-(trifluoromethyl)phenyl)picolinate]",0 to 29

# Same assay, conditions: post-emergence, 336 h, KCHSC: kochia (Bassia scoparia), 140 g ai/ha, 14 days after application, read-out: Visual Growth Reduction (%) 14 Days After Application, KCHSC
row,SMILES,pest or weed control at 140 g/ha [%]
1,"COC(=O)c1nc(-c2cc(O)c(Cl)cc2F)ccc1Cl [F128, Methyl 3-chloro-6-(4-chloro-2-fluoro-5-hydroxyphenyl) picolinate]",0 to 29
2,"COC(=O)c1nc(-c2ccc(C(F)(F)F)cc2Cl)cc(Br)c1Cl [F41, methyl 4-bromo-3-chloro-6-(2-chloro-4-(trifluoromethyl)phenyl)picolinate]",0 to 29

# Same assay, conditions: post-emergence, 336 h, ORYSA: rice (Oryza sativa), 140 g ai/ha, 14 days after application, read-out: Visual Growth Reduction (%) 14 Days After Application, ORYSA
row,SMILES,pest or weed control at 140 g/ha [%]
1,"COC(=O)c1nc(-c2cc(O)c(Cl)cc2F)ccc1Cl [F128, Methyl 3-chloro-6-(4-chloro-2-fluoro-5-hydroxyphenyl) picolinate]",0 to 29
2,"COC(=O)c1nc(-c2ccc(C(F)(F)F)cc2Cl)cc(Br)c1Cl [F41, methyl 4-bromo-3-chloro-6-(2-chloro-4-(trifluoromethyl)phenyl)picolinate]",0 to 29

# Same assay, conditions: post-emergence, 336 h, SETFA: giant foxtail (Setaria faberi), 140 g ai/ha, 14 days after application, read-out: Visual Growth Reduction (%) 14 Days After Application, SETFA
row,SMILES,pest or weed control at 140 g/ha [%]
1,"COC(=O)c1nc(-c2cc(O)c(Cl)cc2F)ccc1Cl [F128, Methyl 3-chloro-6-(4-chloro-2-fluoro-5-hydroxyphenyl) picolinate]",0 to 29
2,"COC(=O)c1nc(-c2ccc(C(F)(F)F)cc2Cl)cc(Br)c1Cl [F41, methyl 4-bromo-3-chloro-6-(2-chloro-4-(trifluoromethyl)phenyl)picolinate]",0 to 29

# Same assay, conditions: post-emergence, 336 h, SORVU: grain sorghum (Sorghum vulgare), 140 g ai/ha, 14 days after application, read-out: Visual Growth Reduction (%) 14 Days After Application, SORVU
row,SMILES,pest or weed control at 140 g/ha [%]
1,"COC(=O)c1nc(-c2cc(O)c(Cl)cc2F)ccc1Cl [F128, Methyl 3-chloro-6-(4-chloro-2-fluoro-5-hydroxyphenyl) picolinate]",0 to 29
2,"COC(=O)c1nc(-c2ccc(C(F)(F)F)cc2Cl)cc(Br)c1Cl [F41, methyl 4-bromo-3-chloro-6-(2-chloro-4-(trifluoromethyl)phenyl)picolinate]",0 to 29

# Same assay, conditions: post-emergence, 336 h, STEME: common chickweed (Stellaria media), 140 g ai/ha, 14 days after application, read-out: Visual Growth Reduction (%) 14 Days After Application, STEME
row,SMILES,pest or weed control at 140 g/ha [%]
1,"COC(=O)c1nc(-c2cc(O)c(Cl)cc2F)ccc1Cl [F128, Methyl 3-chloro-6-(4-chloro-2-fluoro-5-hydroxyphenyl) picolinate]",0 to 29
2,"COC(=O)c1nc(-c2ccc(C(F)(F)F)cc2Cl)cc(Br)c1Cl [F41, methyl 4-bromo-3-chloro-6-(2-chloro-4-(trifluoromethyl)phenyl)picolinate]",0 to 29

# Same assay, conditions: post-emergence, 336 h, TRZAS: wheat, spring (Triticum aestivum), 140 g ai/ha, 14 days after application, read-out: Visual Growth Reduction (%) 14 Days After Application, TRZAS
row,SMILES,pest or weed control at 140 g/ha [%]
1,"COC(=O)c1nc(-c2cc(O)c(Cl)cc2F)ccc1Cl [F128, Methyl 3-chloro-6-(4-chloro-2-fluoro-5-hydroxyphenyl) picolinate]",0 to 29
2,"COC(=O)c1nc(-c2ccc(C(F)(F)F)cc2Cl)cc(Br)c1Cl [F41, methyl 4-bromo-3-chloro-6-(2-chloro-4-(trifluoromethyl)phenyl)picolinate]",0 to 29
